Reference: patent publication US10844018B2, “Pyridoxine derivative for treatment of epilepsy” (AO “TATKHIMFARMPREPARATY”, priority 2017, dated 2020)
“Also recorded” adds a separate entry of the source. Where two headings read alike, the source gives them in different places.

How the values were obtained:
[1] = tested on: penicillin rat epilepsy model (high-amplitude electric discharges, HAED); test: Penicillin model of epilepsy: effect on the electrical activity of the brain; type: in vivo
Method: Experiments were carried out on male Wistar rats with a body weight of 180-250 g. Under isoflurane anesthesia (1.5%), surgical preparation for the experiment is performed. Urethane ([…]) is used for anesthesia during the experiment. Next, the animal is fixed in a stereotactic installation. 2×2 mm holes are drilled in the skulls of animals over symmetrical areas of the sensorimotor cortex of the brain and a 16-channel silicon-based probe (Neuronexus) is installed with a step of 100 μm between the recording electrodes to divert electrical activity from these areas. A silver chloride electrode, which serves as a combined ground electrode and a reference electrode, is introduced into the cerebellum or the visual cortex to a depth of 2-3 mm. To create a focus of epileptic activity in parallel to the somatosensory zones, 2×2 mm holes are drilled in the area of the visual cortex, into which 10 μl of a solution of sodium salt of benzylpenicillin are applied at a concentration of 40,000 IU/ml. […] The amplitude-frequency characteristics of epileptiform activity are evaluated. […] For statistical processing of experimental data, statistical programs Origin 8.5 and IBM SPSS Statistics are used. The significance of differences between populations is evaluated by the Mann-Whitney U-test. […] Their presence, frequency and amplitude are characteristic indicators of brain epileptic activity.

[2] = tested on: corazol rat epilepsy model (convulsions caused by corazol); test: Corazol model of epilepsy: development of seizures; type: in vivo; conditions: rats
Method: Experiments were carried out on male Wistar rats with a body weight of 180-250 g.
Corazol at a dose of 80 mg/kg is administered subcutaneously in the cervical area of the back.
The intensity of the development of a convulsive seizure was studied on a 6-point scale: • 0—lack of convulsive activity; • 1—hyperkinesia; • 2—trembling, twitching, excessive grooming, stereotypical movements; • 3—clonic convulsions of the front legs with lifting on the hind legs; • 4—pronounced tonic-clonic convulsions, the fall of the animal to the side, the presence of a phase of tonic extensia; • 5—repeated tonic-clonic convulsions, loss of posture; • 6—complete tonic attack with apnea, death of the animal.
To study the effect of the claimed compound 1 on the development of convulsions caused by corazol, compound 1 is dissolved in physiological saline and administered as follows: • at doses of 25 mg/kg, 100 mg/kg intraperitoneally (ip) 30 minutes before the induction of convulsions with corazol; • at doses of 100 mg/kg, 200 mg/kg, 250 mg/kg intragastrically 1 hour before the induction of convulsions with corazol.
The development of convulsive disorder is assessed by the following indicators: • time before the onset of seizures (min); • duration of seizures (sec.); • intensity of seizures on a 6-point scale; • number of animals with repeated convulsions; • number of dead animals in the group.
For statistical processing of experimental data, statistical programs Origin 8.5 and IBM SPSS Statistics are used.
The significance of differences between populations is evaluated by the Mann-Whitney U-test.

[3] = Acute toxicity in mice with oral administration (compound 1); conditions: female, CD-1 (ICR), mouse, in vivo, 5000 mg/kg, printed 'in rats', study in CD-1 mice
Method: The study was performed on mice of the CD-1 (ICR) line (6-8 weeks, weight not less than 18 g, females). Two-fold intragastric (oral) administration of compound 1 in a volume of not more than 0.5 ml/30 g of body weight of the mouse using a gastric tube was used.
The introduction was carried out to animals deprived of food (for a period of not less than 8 hours) with free access to water. The volume of administration was calculated individually for each animal, based on the body mass recorded immediately before the introduction of the substance. Access to water and feed was renewed one hour after administration.
To prepare a dose of 5000 mg/kg for administration to mice, a portion of 1.5 g of compound 1 in a polystyrene boat on a Vibra scale (Shinko Denshi, Japan) was weighed, transferred to a volumetric flask of accuracy class A per 10 ml of volume, dissolved in distilled water and adjusted to the mark. Due to the insufficient solubility of compound 1, another 10 ml of distilled water is added to the resulting volume of the solution.
(§1) Animals were clinically examined individually after administration for 30 minutes, then at least once per hour for 4 hours, then daily once a day for 14 days. Body mass was recorded immediately before the administration of the preparation to calculate the volume of administration, then once every two days.

[4] = Acute toxicity in mice with intraperitoneal administration (compound 1); conditions: both sexes, CD-1 (ICR), mouse, in vivo, ip, printed 'in rats', study in CD-1 mice
Method: The study was performed on mice of the CD-1 (ICR) line (6-8 weeks, weight not less than 18 g) of both sexes. A single intraperitoneal injection of compound 1 was used at doses of 1000 mg/kg and 2000 mg/kg in a volume of 1 ml per 40 g of mouse body mass using an insulin syringe. The volume of administration was calculated individually for each animal, based on the body mass recorded immediately before the introduction of the substance.
To prepare a dose of 2000 mg/kg for administration to mice, a portion of 800 mg of compound 1 in a polystyrene boat on a Vibra scale (Shinko Denshi, Japan) was weighed, transferred to a volumetric flask of accuracy class A per 10 ml of volume, dissolved in physiological saline and adjusted to the mark. The solution was filtered with 0.22 μm syringe nozzles (Jet Biofil). […]
as §1

mice [5] = conditions: cited from earlier work
rats [6] = conditions: oral administration; cited from earlier work
mice [7] = conditions: intraperitoneal administration; cited from earlier work
mice [8] = conditions: intravenous injection; cited from earlier work
rats [9] = conditions: intravenous injection; cited from earlier work

## Cc1nc(CS(=O)(=O)O)c(CO)c(CO)c1O [compound 1, (5-hydroxy-3,4-bis (hydroxymethyl)-6-methylpyridin-2-yl) methanesulfonic acid]
[1]; compound 1 25-100 mg/kg against sodium valproate 600 mg/kg, ip, penicillin model
  antiepileptic effect compared with sodium valproate: 6-24 times
[1]; compound 1 at 25, 50, 100 mg/kg ip, given 30 min after penicillin, 60 minutes after administration, rats
  suppression of HAED (epileptic electrical activity of the brain): completely suppressing HAED; also recorded: completely suppresses the epileptic electrical activity of the brain
[1]; compound 1 at 25, 50, 100 mg/kg ip, rats, penicillin model
  amplitude and frequency of HAED: decrease in the amplitude and frequency of HAED
[2]; 250 mg/kg oral administration, corazol model
  prevention / reduction of development of a seizure: best results in reducing the development of a seizure; also recorded: complete prevention of seizures in some cases
[2]; 25 and 100 mg/kg intraperitoneally and 100 and 200 mg/kg orally, corazol model
  intensity and duration of seizures: decrease in the intensity and duration of seizures
[2]; 100 and 200 mg/kg oral, corazol model
  effect on development of a seizure relative to 250 mg/kg oral: slightly less pronounced
[2]; all dosages, corazol model
  deaths: completely prevents deaths
  likelihood of recurrence of seizures: greatly reduces the likelihood of recurrence of seizures
[2]; corazol 80 mg/kg sc, oral and intravenous (so in the source) ways of administration, all doses
  duration and intensity of seizures: dose-dependent decrease in the duration and intensity of seizures
[3]
  LD50 at 14 days: > 5000 mg/kg
[4]
  LD50 at 14 days: > 2000 mg/kg

## CCC1(C)CC(=O)NC1=O (stereo not drawn) [ethosuximide]
Mice [5]; mice, oral administration
  LD50: 1530 mg/kg

## CC[C@@H](C(N)=O)N1CCCC1=O [levetiracetam]
Mice [5]; mice, oral administration
  LD50: > 5000 mg/kg

## Nc1nnc(-c2cccc(Cl)c2Cl)c(N)n1 [lamotrigine]
Mice [5]; mouse, in vivo, po
  LD50: 269 mg/kg

## CC1(C)O[C@@H]2[C@@H](CO[C@@]3(COS(N)(=O)=O)OC(C)(C)O[C@@H]23)O1 [topiramate]
Rats [6]
  LD50: 3570 mg/kg

## NC(=O)N1c2ccccc2C=Cc2ccccc21 [carbamazepine]
Mice [5]; mice, oral administration
  LD50: 529 mg/kg
Mice [7]
  LD50: 114 mg/kg

## CCCC(CCC)C(=O)[O-].[Na+] [sodium valproate]
Mice [5]; mice, oral administration
  LD50: 977 mg/kg
Mice [7]
  LD50: 470 mg/kg

## NS(=O)(=O)Cc1noc2ccccc12 [zonisamide]
Mice [5]; mice, oral administration
  LD50: 1829 mg/kg
Mice [7]
  LD50: 699 mg/kg

## NCC1(CC(=O)O)CCCCC1 [gabapentinum]
Mice [8]
  LD50: 1000 to 2000 mg/kg
Rats [6]
  LD50: > 5000 mg/kg
Mice [5]; mice, oral administration
  LD50: > 5000 mg/kg
Rats [9]
  LD50: > 300 mg/kg

## CCC1(c2ccccc2)C(=O)NC(=O)NC1=O [phenobarbital]
Rats [6]
  LD50: 163 mg/kg

## O=C1N=C([O-])NC1(c1ccccc1)c1ccccc1.[Na+] [sodium phenytoin]
Mice [5]; mice, oral administration
  LD50: 165 mg/kg
